Tested on: iPS cell-derived human hepatic sinusoidal endothelial cells
Assay: Detection of membrane attack complex in iPS cell-derived human hepatic sinusoidal endothelial cell with Oxaliplatin administration
Format: cell-based
Settings: Oxaliplatin final concentration 20 μM vs solvent (ethanol), 3% human serum, 10% organoid culture supernatant

O=C1[O][Pt]2([NH][C@@H]3CCCC[C@H]3[NH]2)[O]C1=O [Oxaliplatin]
number of cells (quantified with DAPI as an index) (24 hr (FIG. 4A)): significant decrease in the number of cells | amount of MAC formed by human serum (24 hr (FIG. 4B)): significantly increased

Source: patent US20220252575A1, “SCREENING METHOD AND TOXICITY EVALUATION METHOD” (Public University Corporation Yokohama City University, priority 2019, published 2022)
